In paper PMC3403540, “Active Hydrophilic Components of the Medicinal Herb Salvia miltiorrhiza (Danshen) Potently Inhibit Organic Anion Transporters 1 (Slc22a6) and 3 (Slc22a8)” (Evidence-based Complementary and Alternative Medicine : eCAM, 2012):

Target: T1, mOat3 (Mus musculus, UniProt O88909)
T1 construct: expressed in transfected cells; host or cells: CHO (Chinese hamster ovary), stably transfected (CHO-mOat3)
T1 sequence (O88909 1-537): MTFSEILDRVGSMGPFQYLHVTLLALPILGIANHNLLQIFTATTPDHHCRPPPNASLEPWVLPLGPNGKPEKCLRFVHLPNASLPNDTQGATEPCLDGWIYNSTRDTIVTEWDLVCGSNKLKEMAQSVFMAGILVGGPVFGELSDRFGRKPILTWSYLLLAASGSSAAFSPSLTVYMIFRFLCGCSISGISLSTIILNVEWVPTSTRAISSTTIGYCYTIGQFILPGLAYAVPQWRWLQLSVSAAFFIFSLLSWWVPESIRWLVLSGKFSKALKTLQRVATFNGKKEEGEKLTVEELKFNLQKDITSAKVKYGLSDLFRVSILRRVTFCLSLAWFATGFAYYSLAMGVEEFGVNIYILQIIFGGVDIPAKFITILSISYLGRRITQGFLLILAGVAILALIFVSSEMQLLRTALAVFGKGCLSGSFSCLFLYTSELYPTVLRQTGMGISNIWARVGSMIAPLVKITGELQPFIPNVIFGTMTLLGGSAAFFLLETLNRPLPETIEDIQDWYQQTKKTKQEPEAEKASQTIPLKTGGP
Assay: Inhibition of mOat3-mediated [3H]ES uptake in CHO-mOat3 cells (cell accumulation assay)
Type: cell-based, murine
Conditions: for Ki / inhibition at 1000 µM: 1 μM [3H]ES; for Ki: 1 min, CHO-mOat3, mean ± S.E.M. (n = 3), from IC50 via Cheng-Prusoff, read-out: Estimated K i for mOat3-mediated transport; for inhibition at 1000 µM: 1 mM (1000 μM) inhibitor, 10 min, CHO-mOat3 cells, read-out: inhibition of mOat3-mediated ES uptake; for mode of inhibition of mOat3-mediated transport: mixed inhibition model, ES substrate
Method: Derivation of the stably transfected Chinese hamster ovary (CHO) cell lines expressing mOat1 (CHO-mOat1), mOat3 (CHO-mOat3), and the empty vector (FRT) transfected control cell line (CHO-FRT) was described previously.
Cell transport assay procedures were adapted from those previously published. In brief, 2 × 10^5 cells/well were seeded in 24-well tissue culture plates and grown in the absence of antibiotics for 48 hr. On the day of the experiment, cells were equilibrated with transport buffer for 10 min (500 μL of Hanks' balanced salt solution containing 10 mM HEPES, pH 7.4). […] After incubation, cells were immediately rinsed three times with ice-cold transport buffer, lysed, and analyzed via liquid scintillation counting. Uptake values were normalized to corresponding total protein content in cell lysates as determined by the Bradford method. Substrate accumulation is reported as picomoles of substrate per milligram protein. […] Kinetic calculations were performed using GraphPad Prism Software version 5.0 (GraphPad Software Inc., San Diego, CA, USA). Michaelis constant (K m) values were calculated by nonlinear regression using the Michaelis-Menten model. Mode of inhibition was identified by using mixed model inhibition analysis as follows: (1) Vmax Apparent =Vmax/(1+[I]/(α×Ki)),Km Apparent=Km1+[I]/Ki/(1+[I]/(α×Ki)),Y=Vmax Apparent×x/Km Apparent+x, where V max, K i, and I represent the maximum transport velocity without inhibitor, the inhibition constant generated from the data set under analysis, and the concentration of inhibitor, respectively. In this study, three curves were constructed (no inhibitor, plus two selected inhibitor concentrations) with uptake of substrate plotted as a function of its concentration for each condition. […] The parameter, α, can then be used to determine the mode of inhibition. When α is very large (α > 1), it indicates competitive inhibition. Otherwise, it indicates noncompetitive inhibition (α = 1) or uncompetitive inhibition (0 < α < 1). To estimate K i values, IC50 values were calculated using nonlinear regression and inserted into the Cheng-Prusoff equation: K i = IC50/(1 + [Substrate]/K m). Results were confirmed by repeating all experiments at least three times with triplicate wells for each data point in every experiment.
Figure 2 Inhibition profile of mOat1 and mOat3. […] (5 μM) by LSA, PCA, RMA, SAA, SAB, TSL, and probenecid (1000 μM) was measured in the CHO-mOat1 cells (10 min). […] (b) Inhibition of mOat3-mediated uptake of [^3H]ES (1 μM) by LSA, PCA, RMA, SAA, SAB, TSL, and probenecid (1000 μM) was measured in the CHO-mOat3 cells (10 min). […] Values are mean ± S.D. of triplicate values. ***denotes P < 0.001 as determined by one-way ANOVA followed by Dunnett's t-test.
Figure 5 K i determination for LSA, RMA, and SAA in the CHO-mOat3 cell line. One minute uptake of [^3H]ES (1 μM) in CHO-mOat3 cells was measured in the presence of increasing concentrations (10^−7 to 4 × 10^−4 M) of LSA, RMA, and SAA. Data were corrected for nonspecific background measured in the CHO-FRT cells prior to kinetic analysis. K i values were determined with non-linear regression and the “one-site competition” model using GraphPad Prism software. Graphs shown are from representative experiments with values plotted as mean ± S.D. (n = 3).

Row | Compound | Ki | inhibition at 1000 µM | mode of inhibition of mOat3-mediated transport | Estimated α value from mixed inhibition model analysis, mOat3 (1 μM ES for 1 min, mean, α > 1 indicates competitive inhibition)
1 | O=C(/C=C/c1ccc(O)c(O)c1)O[C@H](Cc1ccc(O)c(O)c1)C(=O)O [RMA, rosmarinic acid] | 4.3 ± 0.2 µM | > 91% | competitive | 
2 | O=C(/C=C/c1ccc(O)c2c1[C@H](C(=O)O)[C@@H](c1ccc(O)c(O)c1)O2)O[C@H](Cc1ccc(O)c(O)c1)C(=O)O [LSA, lithospermic acid] | 31.1 ± 7 µM | > 91% | competitive | 
3 | O=C(O)C(O)Cc1ccc(O)c(O)c1 (centres unmarked) [TSL, tanshinol] |  | ~55% |  | 
4 | O=C(/C=C/c1ccc(O)c(O)c1/C=C/c1ccc(O)c(O)c1)O[C@H](Cc1ccc(O)c(O)c1)C(=O)O [SAA, salvianolic acid A] | 21.3 ± 7.7 µM | > 91% | competitive | 3.4 × 10^14
